We go through 2 molecules from patent publication US20100210708A1, “COMPOUND PROFILING METHOD” (CYTOPATHFINDER, INC., priority 2007, published 2010).

Assay [1] concerns SHSY5Y cell. Kind of assay: Exposure of SHSY5Y neuroblastoma cells to stimulants: marker enzyme expression and extension of neuron projection. The note with it: a neuroblastoma from human. Type of assay: cell-based. The source says: The functions of (1) and (2) are different, but share the same properties in terms of extension of neuron projection. Therefore, cellular components necessary for these two intracellular alteration were specified experimentally by means of RNA interference method. As such, it was obtained that the component collection (3) necessary for the alteration from SHSY5Y to (1) are {JAK1, JAK3, ROR, and RET}. On the other hand, the component collection (4) necessary for the alteration from SHSY5Y cells to (2), are {NTRK1, EPHB2, INSR, RDGFRA, ROR and RET}. When comparing and calculation of intersection is done for (3) and (4), the intersection (5) was obtained to read {ROR and RET}. Next, the collection (6) {JAK1 and JAK3} by subtraction of (3)-(5) and the collection (5) were analyzed in terms of an intermolecular interaction, and the existence of a pathway of a molecular signals from (6) to (5) (FIG. 3A) was determined. Furthermore, the collection (7) which was obtained by the subtraction of (4)-(5), and the collection (5) were analyzed in terms of an intermolecular interaction, and the existence of a pathway of molecular signals from (7) to (5) (FIG. 3B) was further determined. The common components and pathway relating to the projection extension by retinoic acid (RA) and Nerve Growth Factor (NGF) are shown in FIG. 4.

The test system of assay [2] is T-47D cell. Particulars: human derived breast cancer, compared with SK-BR-3; cited from earlier work.
The test system of assay [3] is SK-BR-3. The note with it: breast cancer cell SK-BR-3; stated as known; cited from earlier work.
Assay [4] deals with MCF7. The note with it: breast cancer cells MCF7; cited from earlier work.

As to “Nerve Growth Factor: Nerve Growth Factor (NGF), stimulant triggering neurite outgrowth in SHSY5Y cells”, in assay [1], the “expression of tyrosine hydroxylase” value is listed as “tyrosine hydroxylase was expressed”, the “extension of neuron projection” value was “caused extension of neuron projection” and the “neuron cell type formed” value is “forms dopaminergic neuron cells”.

`COc1cccc2c1C(=O)c1c(O)c3c(c(O)c1C2=O)C[C@@](O)(C(=O)CO)C[C@@H]3O[C@H]1C[C@H](N)[C@H](O)[C@H](C)O1` [doxorubicin]: the DXR sensitivity result in assay [2] is reported as “same DXR sensitivity as the SK-BR-3”. Further, the growth inhibition entry in assay [3] is “subjected to growth inhibition”. Also, the DXR resistance result in assay [4] is given as “having DXR resistance”.
